Results taken from US20250222146A1, “Radiopharmaceuticals Targeting Somatostatin Receptor 2 and Uses Thereof” (RayzeBio, Inc., priority 2023, published 2025).
Numbered stars: 1 amine (or outer) side, 2 acyl side, 3 side chain; on linkers, the order of the positions; unused ones are H or OH. Square brackets hold non-standard residues; d marks the D form. Side chains are listed from the residue outwards. Peptide text beside a SMILES is read from it. * marks the point of attachment. ξ: configuration not given here. DOTA(Lu)NH(CH2)6NHCOCH2 = O=C(CN1CCN2CCN3CCN(CC1)CC(=O)[O][Lu]([O]C(=O)C2)[O]C(=O)C3)NCCCCCCNC(=O)C*; DOTA(Lu) = O=C1CN2CCN3CCN(CC(=O)*)CCN(CC2)CC(=O)[O][Lu]([O]1)[O]C(=O)C3; X7 = O=C1CN2CCN3CCN(CC2)[C@H](CCC(=O)*)C(=O)[O][Ga]([O]1)[O]C(=O)C3; Ala(piperidin-4-yl) = O=C([C@H](CC1CCN([*:3])CC1)N[*:1])[*:2]; dTrp(βS-Me) = C[C@@H](c1c[nH]c2ccccc12)[C@@H](N)C(=O)O; N(6-aminohexyl)Gly = O=C(CN(CCCCCCN[*:3])[*:1])[*:2]; Tyr(3,5-F2) = N[C@@H](Cc1cc(F)c(O)c(F)c1)C(=O)O; Phe(3-CONH2) = NC(=O)c1cccc(C[C@H](N)C(=O)O)c1; X4 = C[C@@H](c1ccccc1)[C@H](N[*:1])C(=O)[*:2]; Gly(piperidin-4-yl) = N[C@H](C(=O)O)C1CCNCC1; Phe(3R-Me) = C[C@H](c1ccccc1)[C@H](N)C(=O)O; ξDihydroorotoyl = O=C1CC(C(=O)*)NC(=O)N1; Phe(4-NH2) = Nc1ccc(C[C@H](N)C(=O)O)cc1; Trx = NC[C@H]1CC[C@H](C(=O)O)CC1; 3Pal = N[C@@H](Cc1cccnc1)C(=O)O; X13 = NCCCCN(N[*:1])C(=O)[*:2]; NMehCys = CN[C@@H](CCS)C(=O)O; NMeK = CN[C@@H](CCCCN)C(=O)O; Phg = N[C@H](C(=O)O)c1ccccc1; NMeA = CN[C@@H](C)C(=O)O

The molecules below were run against SSTR2 (Homo sapiens, UniProt P30874) (assay: SSTR binding affinity by radioligand binding competition assay ([125I]-Tyr11-Somatostatin, membrane extracts)). Conditions: SSTR2 Ki, radioligand competition, [125I]-Tyr11-Somatostatin 0.1 nM, membrane extracts; Ki from IC50 by Cheng Prusoff.
Chain of SSTR2 (P30874 whole entry): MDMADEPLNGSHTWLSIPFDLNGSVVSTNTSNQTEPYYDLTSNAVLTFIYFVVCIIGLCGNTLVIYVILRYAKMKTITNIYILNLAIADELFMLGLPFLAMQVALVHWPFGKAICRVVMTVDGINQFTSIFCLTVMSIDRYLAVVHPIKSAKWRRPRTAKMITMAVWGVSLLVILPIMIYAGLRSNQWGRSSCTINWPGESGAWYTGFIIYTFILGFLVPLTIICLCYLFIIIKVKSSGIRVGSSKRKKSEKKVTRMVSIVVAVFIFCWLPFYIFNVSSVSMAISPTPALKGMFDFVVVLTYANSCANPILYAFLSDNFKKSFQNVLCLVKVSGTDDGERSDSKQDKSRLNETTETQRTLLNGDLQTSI

Row | SMILES | Ki
1 | C[C@@H](O)[C@@H]1NC(=O)[C@H](CCCCN)NC(=O)[C@@H](Cc2c[nH]c3ccccc23)NC(=O)[C@H](Cc2ccc(O)cc2)NC(=O)[C@H](CSCC(=O)NCCCCCCNC(=O)CN2CCN3CCN4CCN(CC2)CC(=O)[O][Lu]([O]C(=O)C3)[O]C(=O)C4)N(C)C(=O)[C@H](Cc2ccccc2)NC1=O [RB-0003164] | 1 to 3.33 nM
2 | C[C@@H](O)[C@@H]1NC(=O)[C@H](CCCCN)NC(=O)[C@@H](Cc2c[nH]c3ccccc23)NC(=O)[C@H](Cc2ccc(O)cc2)NC(=O)[C@H](CCCCNC(=O)CCCCCCCNC(=O)CN2CCN3CCN4CCN(CC2)CC(=O)[O][Lu]([O]C(=O)C3)[O]C(=O)C4)N(C)C(=O)[C@H](Cc2ccccc2)NC1=O [RB-0003296] | 1 to 3.33 nM
3 | C[C@@H](O)[C@@H]1NC(=O)[C@H](CCCCN)NC(=O)[C@H](Cc2c[nH]c3ccccc23)NC(=O)[C@H](Cc2ccc(O)cc2)NC(=O)[C@H](CCSCC(=O)NCCCCCCNC(=O)CN2CCN3CCN4CCN(CC2)CC(=O)[O][Lu]([O]C(=O)C3)[O]C(=O)C4)N(C)C(=O)[C@H](Cc2ccccc2)NC1=O [RB-0005905] | < 1 nM
4 | C[C@@H](O)[C@@H]1NC(=O)[C@H](CCCCN)NC(=O)[C@H](Cc2c[nH]c3ccccc23)NC(=O)[C@H](Cc2ccc(O)cc2)NC(=O)[C@H](CCSCC(=O)NCCCCCCNC(=O)CN2CCN3CCN4CCN(CC2)CC(=O)[O][Lu]([O]C(=O)C3)[O]C(=O)C4)N(C)C(=O)[C@H](Cc2ccccc2)NC1=O [RB-0005907] | 3.33 to 10 nM

Same assay, conditions: radioligand competition, [125I]-Tyr11-Somatostatin 0.1 nM, membrane extracts; Ki from IC50 by Cheng Prusoff; read-out: SSTR2 Ki

Row | SMILES | Ki
5 | C[C@@H](O)[C@@H]1NC(=O)[C@H](CCCCN)NC(=O)[C@@H](Cc2c[nH]c3ccccc23)NC(=O)[C@H](Cc2ccc(O)cc2)NC(=O)[C@H](CCSCC(=O)NCCCCCCNC(=O)CN2CCN3CCN4CCN(CC2)CC(=O)[O][Lu]([O]C(=O)C3)[O]C(=O)C4)N(C)C(=O)[C@H](Cc2cccc(C(N)=O)c2)NC1=O [RB-0003306] (cyclo(KT[Phe(3-CONH2)][NMehCys](DOTA(Lu)NH(CH2)6NHCOCH2)Y[dW])) | 1 to 3.33 nM
6 | C[C@@H](O)[C@@H]1NC(=O)N(CCCCN)NC(=O)[C@@H](Cc2c[nH]c3ccccc23)NC(=O)[C@H](Cc2ccc(O)cc2)NC(=O)[C@H](CCCCNC(=O)CN2CCN3CCN4CCN(CC2)CC(=O)[O][Lu]([O]C(=O)C3)[O]C(=O)C4)N(C)C(=O)[C@H](Cc2ccccc2)NC1=O [RB-0006217] (cyclo(F[NMeK](DOTA(Lu))Y[dW][X13]T)) | < 1 nM
7 | C[C@@H](O)[C@@H]1NC(=O)[C@H](CC2CCNCC2)NC(=O)[C@@H]([C@@H](C)c2c[nH]c3ccccc23)NC(=O)[C@H](Cc2ccc(O)cc2)NC(=O)CN(CCCCCCNC(=O)CN2CCN3CCN4CCN(CC2)CC(=O)[O][Lu]([O]C(=O)C3)[O]C(=O)C4)C(=O)[C@H](Cc2ccccc2)NC1=O [RB-0006389] (cyclo(F[N(6-aminohexyl)Gly](DOTA(Lu))Y[dTrp(βS-Me)][Ala(piperidin-4-yl)]T)) | < 1 nM
8 | C[C@H](c1ccccc1)[C@@H]1NC(=O)[C@H](CCSCC(=O)NCCCCCCNC(=O)CN2CCN3CCN4CCN(CC2)CC(=O)[O][Lu]([O]C(=O)C3)[O]C(=O)C4)N(C)C(=O)[C@H](Cc2ccccc2)NC(=O)[C@H]([C@@H](C)O)NC(=O)[C@H](CCCCN)NC(=O)[C@@H]([C@@H](C)c2c[nH]c3ccccc23)NC1=O [RB-0003383] (cyclo(F[NMehCys](DOTA(Lu)NH(CH2)6NHCOCH2)[Phe(3R-Me)][dTrp(βS-Me)]KT)) | < 1 nM
9 | CCN(C)CC(=O)[O][Lu]1[O]C(=O)CN(C)CCN(CCN(CC)CC(=O)NCCCCCC(=O)NCCCCC[C@H]2C(=O)N[C@@H](Cc3ccc(O)cc3)C(=O)N[C@H](Cc3c[nH]c4ccccc34)C(=O)N[C@@H](CCCCN)C(=O)N[C@@H]([C@@H](C)O)C(=O)N[C@@H](Cc3ccccc3)C(=O)N2C)CC(=O)[O]1 [RB-0003057] | < 1 nM
10 | C[C@@H](O)[C@@H]1NC(=O)[C@H](C2CCNCC2)NC(=O)[C@@H](Cc2c[nH]c3ccccc23)NC(=O)[C@H](Cc2ccc(O)cc2)NC(=O)[C@H](CCSCC(=O)NCCCCCCNC(=O)CN2CCN3CCN4CCN(CC2)CC(=O)[O][Lu]([O]C(=O)C3)[O]C(=O)C4)N(C)C(=O)[C@H](Cc2ccccc2)NC1=O [RB-0004868] (cyclo(F[NMehCys](DOTA(Lu)NH(CH2)6NHCOCH2)Y[dW][Gly(piperidin-4-yl)]T)) | 3.33 to 10 nM
11 | C[C@@H](O)[C@@H]1NC(=O)[C@H](CCCCN)NC(=O)[C@@H](Cc2c[nH]c3ccccc23)NC(=O)[C@H]([C@@H](C)c2ccccc2)NC(=O)[C@H](CCSCC(=O)NCCCCCCNC(=O)CN2CCN3CCN4CCN(CC2)CC(=O)[O][Lu]([O]C(=O)C3)[O]C(=O)C4)N(C)C(=O)[C@H](Cc2ccccc2)NC1=O [RB-0003136] (cyclo(F[NMehCys](DOTA(Lu)NH(CH2)6NHCOCH2)[X4][dW]KT)) | 1 to 3.33 nM
12 | C[C@@H](O)[C@@H]1NC(=O)[C@H](CCCCN)NC(=O)[C@@H](Cc2c[nH]c3ccccc23)NC(=O)[C@H](Cc2cc(F)c(O)c(F)c2)NC(=O)[C@H](CCSCC(=O)NCCCCCCNC(=O)CN2CCN3CCN4CCN(CC2)CC(=O)[O][Lu]([O]C(=O)C3)[O]C(=O)C4)N(C)C(=O)[C@H](Cc2ccccc2)NC1=O [RB-0005740] (cyclo(F[NMehCys](DOTA(Lu)NH(CH2)6NHCOCH2)[Tyr(3,5-F2)][dW]KT)) | < 1 nM
13 | C[C@@H](O)[C@@H]1NC(=O)[C@H](CC2CCNCC2)NC(=O)[C@@H]([C@@H](C)c2c[nH]c3ccccc23)NC(=O)[C@H](Cc2ccc(O)cc2)NC(=O)[C@H](CCCCNC(=O)[C@H]2CC[C@H](CNC(=O)CC[C@@H]3C(=O)[O][Ga]4[O]C(=O)CN5CCN(CCN3CC5)CC(=O)[O]4)CC2)N(C)C(=O)[C@H](Cc2ccccc2)NC1=O [RB-0006470] (cyclo(F[NMeK]([Trx-X7])Y[dTrp(βS-Me)][Ala(piperidin-4-yl)]T)) | 1 to 3.33 nM
14 | C[C@@H](O)[C@@H]1NC(=O)[C@H](CCCCN)NC(=O)[C@@H](Cc2c[nH]c3ccccc23)NC(=O)[C@H](Cc2ccc(O)cc2)NC(=O)[C@H](CCSCC(=O)NCCCCCCNC(=O)CN2CCN3CCN4CCN(CC2)CC(=O)[O][Lu]([O]C(=O)C3)[O]C(=O)C4)N(C)C(=O)[C@H](c2ccccc2)NC1=O [RB-0004821] (cyclo(KT[Phg][NMehCys](DOTA(Lu)NH(CH2)6NHCOCH2)Y[dW])) | 1 to 3.33 nM
15 | C[C@@H](O)[C@@H]1NC(=O)[C@H](CCCCN)NC(=O)[C@@H](Cc2c[nH]c3ccccc23)NC(=O)[C@H](Cc2ccc(O)cc2)NC(=O)[C@H](CCSCC(=O)NCCCCCCNC(=O)CN2CCN3CCN4CCN(CC2)CC(=O)[O][Lu]([O]C(=O)C3)[O]C(=O)C4)N(C)C(=O)[C@H](Cc2cccnc2)NC1=O [RB-0003276] (cyclo([3Pal][NMehCys](DOTA(Lu)NH(CH2)6NHCOCH2)Y[dW]KT)) | 3.33 to 10 nM

Same assay, conditions: read-out: SSTR2 Ki

Row | Ki | SMILES
16 | < 1 nM | C[C@@H](O)[C@@H]1NC(=O)[C@H](CCCCN)NC(=O)[C@@H]([C@@H](C)c2c[nH]c3ccccc23)NC(=O)[C@H](Cc2ccncc2)NC(=O)[C@H](CCSCC(=O)NCCCCCCNC(=O)CN2CCN(CC(=O)O)CCN(CC(=O)O)CCN(CC(=O)O)CC2)N(C)C(=O)[C@H]([C@@H](C)c2ccccc2)NC1=O [RB-0003409]
17 | 1 to 3.33 nM | CC(C)[C@@H]1NC(=O)[C@H](CCCCN)NC(=O)[C@@H](Cc2c[nH]c3ccccc23)NC(=O)[C@H](Cc2ccc(NC(=O)C3CC(=O)NC(=O)N3)cc2)NC(=O)[C@H](C)N(C)C(=O)[C@H](Cc2ccccc2)NC1=O (some centres unmarked) [RB-0002597] (cyclo(F[NMeA][Phe(4-NH2)](ξDihydroorotoyl)[dW]KV))
